This assay has as its target T1, human TLL2 (Homo sapiens, UniProt Q9Y6L7).
T1 construct: amino acids 26-1015 of human TLL2 (NM_012465); made in house
T1 sequence (Q9Y6L7 150-1015): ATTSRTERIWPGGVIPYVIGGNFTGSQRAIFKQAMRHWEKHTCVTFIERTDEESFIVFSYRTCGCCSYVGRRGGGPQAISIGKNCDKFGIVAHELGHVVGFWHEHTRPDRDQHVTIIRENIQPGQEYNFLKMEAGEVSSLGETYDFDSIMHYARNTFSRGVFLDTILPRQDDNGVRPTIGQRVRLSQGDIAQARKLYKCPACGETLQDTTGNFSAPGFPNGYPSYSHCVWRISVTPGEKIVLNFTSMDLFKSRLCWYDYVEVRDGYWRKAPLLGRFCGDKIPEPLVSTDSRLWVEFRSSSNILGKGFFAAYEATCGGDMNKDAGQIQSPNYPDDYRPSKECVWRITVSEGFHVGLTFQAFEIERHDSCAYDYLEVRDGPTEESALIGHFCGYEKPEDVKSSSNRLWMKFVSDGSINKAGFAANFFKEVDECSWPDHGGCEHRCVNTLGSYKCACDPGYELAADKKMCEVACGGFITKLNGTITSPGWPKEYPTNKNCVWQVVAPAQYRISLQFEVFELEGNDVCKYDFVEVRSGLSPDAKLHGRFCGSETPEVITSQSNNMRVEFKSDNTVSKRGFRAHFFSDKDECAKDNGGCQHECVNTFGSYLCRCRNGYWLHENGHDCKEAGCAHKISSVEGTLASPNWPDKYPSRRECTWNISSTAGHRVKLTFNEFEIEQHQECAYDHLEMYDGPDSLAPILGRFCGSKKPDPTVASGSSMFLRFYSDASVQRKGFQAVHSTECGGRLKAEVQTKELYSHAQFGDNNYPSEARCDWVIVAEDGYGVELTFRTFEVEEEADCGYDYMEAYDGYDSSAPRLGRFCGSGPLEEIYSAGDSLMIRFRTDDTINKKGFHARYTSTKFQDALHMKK
Briefly: Enzyme inhibition assay for human TLL2. In kind it is biochemical. To be noted: 18 nM TLL2, 5 μM promyostatin peptide substrate; read-out: pIC50, TLL2 enzyme inhibition assay (converted). The source says:
Buffer components are purchased from Sigma-Aldrich (St. Louis, Mo.) or an equivalent supplier. The promyostatin peptide substrate is custom synthesized by American Peptide Company (Sunnyvale, Calif.) using the myostatin protein sequence (Uniprot accession number 014793) surrounding the cleavage site reviewed in Hopkins, D. R., et al., 2007 Matrix Biology, 26, 508-523. The procollagen peptide substrate used in the high enzyme BMP1 cleavage assay is custom synthesized by 21st Century Biochemicals (Marlboro, Mass.) using the procollagen Iα protein sequence (Uniprot accession number P02452) surrounding the cleavage site reviewed in Hopkins, D. R., et al., 2007 Matrix Biology, 26, 508-523.
The DNA sequence encoding amino acids 26-1015 of human TLL2 (NM_012465) is PCR amplified from DNA template with the human RAGE signal sequence at the N-terminus and Avi-6×His epitope tags at the C-terminus ([…]). […]
Inhibition of human TLL1 and TLL2 recombinant enzymes is measured in 10 ul endpoint assays in 384-well format using the same promyostatin peptide substrate employed in the above Enzyme Inhibition Assay for human BMP1. […] TLL1 and TLL2 reactions are quenched with 5 μl of 0.5 M EDTA and plates are read on a ViewLux (Perkin Elmer) multilabel plate reader using a 480 nm excitation filter and 540 nm emission filter. […]

Consider one molecule from patent publication US20180362485A1, “N-HYDROXYFORMAMIDE COMPOUNDS AND COMPOSITIONS COMPRISING THEM FOR USE AS BMP l, TLL1 AND/OR TLL2 INHIBITORS” (GlaxoSmithKline Intellectual Property (No. 2) Limited, priority 2015, published 2018).

SMILES strings stand for the structures.

`CCCCC[C@@H](C(=O)NCNC(=O)c1ccc(-c2ccc(C(=O)O)cc2)o1)[C@@H](CC)N(O)C=O` [WO2015/104684 Example 71, 4-(5-((((R)-2-((R)-1-(N-hydroxyformamido)propyl)heptanamido)methyl)carbamoyl)furan-2-yl)benzoic acid]: the IC50 is under 0.794 µM.
